Laboratory results from patent US20170151373A1, “ANTIMICROBIAL SOLUTIONS WITH ENHANCED STABILITY” (Board of Regents, The University of Texas System, priority 2015, published 2017).
Read-outs that look alike come from different tables or passages of the source.

Columns and labels:
[1] = pH measurement of solutions (pH meter); type: physicochemical
Method: A solution containing disodium EDTA that was pH adjusted using base was prepare by the following method: • 1. Weigh out 300 mg disodium EDTA powder in 30 ml vial, and dissolve in 9.3 mL sterile water. Shake EDTA and sterile water until completely dissolved. QS to 10 ml with water. […] Measure pH, Add 1M NaOH recording volume added and remeasure pH.
A solution containing tetrasodium EDTA pH adjusted with disodium EDTA was prepared by the following method: • 1. Weigh out 300 mg disodium EDTA powder in 30 ml vial, and dissolve in 9.3 mL sterile water. Shake EDTA and sterile water until completely dissolved. QS to 10 ml with water. […] Weigh out 300 mg tetrasodium EDTA powder in 30 ml vial, and dissolve in 9.3 mL sterile water. Shake EDTA and sterile water until completely dissolved. QS to 10 ml with water. […] Measure pH of tetrasodium EDTA and add disodium EDTA recording volume added and pH after each addition • The following solutions were produced:
7. Prepare 19 syringes with 1 mL in each syringe. (1-3 mL sterile syringe can be used) Label the syringes and protect from light. • The pH from seven syringes, sampled randomly, were measured using a pH meter.

[2] = cited from earlier work; for fraction of EDTA that is tetravalent: 0.1 Molar (Harris 2010)

`O=C([O-])CN(CCN(CC(=O)O)CC(=O)O)CC(=O)[O-].[Na+].[Na+]` [3% disodium EDTA, Ethylenediamine-N,N,N′,N′,-tetraacetic acid, disodium salt] showed a pH ([1]; 10 ml 3% disodium EDTA, total volume 1M NaOH added 0) of 4.5, a pH ([1]; 10 ml 3% disodium EDTA, total volume 1M NaOH added 0.5 ml) of 4.9 and a pH ([1]; 10 ml 3% disodium EDTA, total volume 1M NaOH added 1.0 ml) of 5.4. For the same molecule, the pH ([1]; 10 ml 3% disodium EDTA, total volume 1M NaOH added 1.5 ml) was 6.9 and the pH ([1]; 10 ml 3% disodium EDTA, total volume 1M NaOH added 1.7 ml) was 7.4.

For `O=C([O-])CN(CCN(CC(=O)[O-])CC(=O)[O-])CC(=O)[O-].[Na+].[Na+].[Na+].[Na+]` [3% tetrasodium EDTA, Ethylenediamine-N,N,N′,N′-tetraacetic acid, tetrasodium salt], the pH ([1]; 5 ml 3% tetrasodium EDTA, total volume 3% disodium EDTA added 0) was 10.9, the pH ([1]; 5 ml 3% tetrasodium EDTA, total volume 3% disodium EDTA added 1 ml) was 10.2 and the pH ([1]; 5 ml 3% tetrasodium EDTA, total volume 3% disodium EDTA added 2 ml) was 9.5. It also gave a pH ([1]; 5 ml 3% tetrasodium EDTA, total volume 3% disodium EDTA added 3 ml) of 9.0, a pH ([1]; 5 ml 3% tetrasodium EDTA, total volume 3% disodium EDTA added 4 ml) of 8.8 and a pH ([1]; 5 ml 3% tetrasodium EDTA, total volume 3% disodium EDTA added 5 ml) of 8.1. For the same molecule, the pH ([1]; 5 ml 3% tetrasodium EDTA, total volume 3% disodium EDTA added 6 ml) was 7.1.

For `O=C([O-])CN(CCN(CC(=O)[O-])CC(=O)O)CC(=O)[O-].[Na+].[Na+].[Na+]` [Trisodium EDTA, Ethylenediamine-N,N,N′,N′,-tetraacetic acid, trisodium salt], the pH ([2]; vendor product (Dissolvine NA3-36)) is given as 9.5.

For `O=C(O)CN(CCN(CC(=O)O)CC(=O)O)CC(=O)O` [pure tetra-acid EDTA, Ethylenediamine-N,N,N′,N′,-tetraacetic acid], the “fraction of EDTA that is tetravalent” value ([2]; pH 6, 20 degrees Celsius) is given as “about 0.000018”, the “fraction of EDTA that is tetravalent” value ([2]; pH 8, 20 degrees Celsius) is given as “about 0.0042” and the pH ([1]; in water/ethanol, Example 1) is given as 3.1.
